Source: publication PMC4327817 (ACS chemical biology, 2014)
Like-named read-outs stand apart in the source and are kept apart here. Blank lines part the entries; values can stand above or below the molecule they belong to.

Columns and labels:
CBP = CBP (Homo sapiens, UniProt Q92793); assay: C646 titration of CBP acetylation of H3/H4 under kcat conditions; format: biochemical
BxPC3 cells = assay: Histone acetylation in BxPC3 cells after drug treatment; format: cell-based, human; conditions: for EC50: read-out: apparent EC50 for activation; for Mean fold-change in acetylation: TSA 0.5 μM

CBP, sequence (Q92793 whole entry): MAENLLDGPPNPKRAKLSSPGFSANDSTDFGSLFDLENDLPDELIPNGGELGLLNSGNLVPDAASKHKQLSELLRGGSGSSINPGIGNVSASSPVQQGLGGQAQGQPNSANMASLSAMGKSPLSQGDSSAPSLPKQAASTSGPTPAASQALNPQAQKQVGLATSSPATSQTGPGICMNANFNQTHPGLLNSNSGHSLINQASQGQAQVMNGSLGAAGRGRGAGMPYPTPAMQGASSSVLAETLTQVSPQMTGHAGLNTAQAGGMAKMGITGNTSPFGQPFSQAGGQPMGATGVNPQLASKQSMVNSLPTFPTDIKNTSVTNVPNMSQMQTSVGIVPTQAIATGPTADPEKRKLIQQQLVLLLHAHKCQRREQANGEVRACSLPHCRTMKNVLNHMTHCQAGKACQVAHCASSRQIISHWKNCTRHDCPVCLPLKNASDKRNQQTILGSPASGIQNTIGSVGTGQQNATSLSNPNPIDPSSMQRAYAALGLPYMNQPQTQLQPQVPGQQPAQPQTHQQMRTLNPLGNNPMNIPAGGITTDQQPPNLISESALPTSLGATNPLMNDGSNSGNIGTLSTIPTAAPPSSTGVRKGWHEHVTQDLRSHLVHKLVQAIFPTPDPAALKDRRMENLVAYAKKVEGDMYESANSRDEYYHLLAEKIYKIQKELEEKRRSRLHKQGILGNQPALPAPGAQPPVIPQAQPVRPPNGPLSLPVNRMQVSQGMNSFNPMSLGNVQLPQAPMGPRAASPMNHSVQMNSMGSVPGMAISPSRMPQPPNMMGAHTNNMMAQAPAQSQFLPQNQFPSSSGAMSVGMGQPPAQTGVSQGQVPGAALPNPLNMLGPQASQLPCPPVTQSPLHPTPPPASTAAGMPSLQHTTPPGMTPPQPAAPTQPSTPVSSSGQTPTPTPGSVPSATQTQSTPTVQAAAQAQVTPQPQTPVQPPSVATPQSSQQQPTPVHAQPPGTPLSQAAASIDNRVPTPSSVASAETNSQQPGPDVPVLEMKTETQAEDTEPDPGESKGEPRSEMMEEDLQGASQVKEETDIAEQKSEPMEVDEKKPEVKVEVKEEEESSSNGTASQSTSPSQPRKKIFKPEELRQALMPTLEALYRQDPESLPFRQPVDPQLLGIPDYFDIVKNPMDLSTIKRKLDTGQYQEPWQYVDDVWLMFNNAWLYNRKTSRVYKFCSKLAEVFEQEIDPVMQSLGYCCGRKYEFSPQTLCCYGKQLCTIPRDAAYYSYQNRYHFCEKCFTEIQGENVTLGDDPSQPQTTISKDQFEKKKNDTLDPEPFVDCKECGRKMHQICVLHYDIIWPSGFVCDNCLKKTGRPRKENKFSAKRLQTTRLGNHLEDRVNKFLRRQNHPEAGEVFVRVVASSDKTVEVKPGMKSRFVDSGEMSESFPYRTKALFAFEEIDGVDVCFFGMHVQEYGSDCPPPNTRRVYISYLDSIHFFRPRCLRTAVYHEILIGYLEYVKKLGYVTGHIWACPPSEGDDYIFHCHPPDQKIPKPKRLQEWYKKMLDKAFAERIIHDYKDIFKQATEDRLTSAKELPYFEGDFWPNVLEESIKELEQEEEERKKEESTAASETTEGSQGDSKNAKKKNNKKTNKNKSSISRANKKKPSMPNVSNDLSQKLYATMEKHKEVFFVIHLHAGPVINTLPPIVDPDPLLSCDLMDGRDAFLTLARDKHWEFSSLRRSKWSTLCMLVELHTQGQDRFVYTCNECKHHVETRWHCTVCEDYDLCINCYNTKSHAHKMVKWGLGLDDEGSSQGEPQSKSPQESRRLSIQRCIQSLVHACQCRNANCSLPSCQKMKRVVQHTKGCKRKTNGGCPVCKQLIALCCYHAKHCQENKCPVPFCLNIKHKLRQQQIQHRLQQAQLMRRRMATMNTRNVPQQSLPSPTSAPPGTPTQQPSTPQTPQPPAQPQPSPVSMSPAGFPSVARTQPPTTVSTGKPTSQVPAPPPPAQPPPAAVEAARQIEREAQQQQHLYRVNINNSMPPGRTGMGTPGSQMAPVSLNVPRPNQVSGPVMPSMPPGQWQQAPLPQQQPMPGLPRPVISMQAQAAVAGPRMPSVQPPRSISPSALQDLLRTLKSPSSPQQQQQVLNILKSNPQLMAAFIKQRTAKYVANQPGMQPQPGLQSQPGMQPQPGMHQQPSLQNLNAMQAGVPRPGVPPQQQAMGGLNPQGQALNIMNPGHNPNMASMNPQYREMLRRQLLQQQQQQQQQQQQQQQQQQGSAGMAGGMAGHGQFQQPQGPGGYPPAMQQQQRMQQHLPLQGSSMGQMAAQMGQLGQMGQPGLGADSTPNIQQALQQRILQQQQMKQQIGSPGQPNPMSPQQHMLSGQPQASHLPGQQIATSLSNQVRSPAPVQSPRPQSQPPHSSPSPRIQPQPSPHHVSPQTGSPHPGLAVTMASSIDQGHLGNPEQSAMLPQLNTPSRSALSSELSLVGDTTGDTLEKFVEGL

- C646 concentration range inhibiting CBP (CBP; compared with p300): within the nanomolar range
- effect of C646 on CBP acetylation activity (CBP; kcat conditions, other sites mainly displayed an inhibitory effect): biphasic dependence for H3K18
- EC50 (BxPC3 cells; site H3K18, 4 hours): ~400 nM
- EC50 (BxPC3 cells; site H3K23, 4 hours): ~400 nM
- IC50 (BxPC3 cells; read-out: apparent IC50 of inhibition, site H3K18, 4 hours): ~6.8 µM
SMILES: CC1=NN(c2ccc(C(=O)O)cc2)C(=O)/C1=C\c1ccc(-c2cc(C)c(C)cc2[N+](=O)[O-])o1 [C646]
- stimulation of acetylation in parental BxPC3 cells (BxPC3 cells; parental cells, compared with p300-depleted cells): ≤ 2.5 fold

SMILES: CC(C)(CCCCCCCCCCC(C)(C)CC(=O)O)CC(=O)O [MEDICA 16, beta, beta’-tetramethylhexadecanedioic acid]
- effect of MEDICA 16 pretreatment on the acetylation response to C646 (BxPC3 cells; 5 μM MEDICA 16 for 24 hours prior to […] C646): muted stimulatory response to C646

SMILES: CC(/C=C/C(=O)NO)=C\[C@@H](C)C(=O)c1ccc(N(C)C)cc1 [TSA]
- Mean fold-change in acetylation (BxPC3 cells; site H3K9, 4 hours, after 16 hours of serum starvation): 3.02 fold
- Mean fold-change in acetylation (BxPC3 cells; site H3K9, 4 hours, no starvation): 68.56 fold
- increase of acetylation relative to C646 (BxPC3 cells; site H3K9, TSA versus C646): 42 fold
- Mean fold-change in acetylation (BxPC3 cells; site H3K14, 4 hours, after 16 hours of serum starvation): 1.65 fold
- Mean fold-change in acetylation (BxPC3 cells; site H3K14, 4 hours, no starvation): 2.412 fold
- Mean fold-change in acetylation (BxPC3 cells; site H3K18, 4 hours, after 16 hours of serum starvation): 1.94 fold
- Mean fold-change in acetylation (BxPC3 cells; site H3K23, 4 hours, after 16 hours of serum starvation): 1.78 fold
- Mean fold-change in acetylation (BxPC3 cells; site H3K23, 4 hours, no starvation): 2.83 fold
